Experimental data reported in ChEMBL document CHEMBL3352621, “Pentapeptide boronic acid inhibitors of Mycobacterium tuberculosis MycP1 protease” (Bioorg Med Chem Lett, 2014).
The source made the active and inactive calls. Peptide text beside a SMILES is read from it. * marks the point of attachment. boroAla = C[C@H](N*)B(O)O

Columns and labels:
[1] = tested on: Mycobacterium thermoresistibile
[2] = tested on: Mycolicibacterium smegmatis
[3] = tested on: Mycobacterium tuberculosis

Measured: inhibition

CC(C)[C@H](NC(=O)[C@H](C)N)C(=O)N[C@@H](CCCCN)C(=O)N[C@@H](C)C(=O)N[C@@H](C)B(O)O (H-AVKA-boroAla)
inactive: all assays above
